The target of series [1] is T1, human Notum (81–451 Cys330Ser) (Homo sapiens, UniProt Q6P988, C330S).
T1 construct: human Notum (81–451 Cys330Ser) as the enzyme; made in house
T1 sequence (Q6P988 81-451 C330S): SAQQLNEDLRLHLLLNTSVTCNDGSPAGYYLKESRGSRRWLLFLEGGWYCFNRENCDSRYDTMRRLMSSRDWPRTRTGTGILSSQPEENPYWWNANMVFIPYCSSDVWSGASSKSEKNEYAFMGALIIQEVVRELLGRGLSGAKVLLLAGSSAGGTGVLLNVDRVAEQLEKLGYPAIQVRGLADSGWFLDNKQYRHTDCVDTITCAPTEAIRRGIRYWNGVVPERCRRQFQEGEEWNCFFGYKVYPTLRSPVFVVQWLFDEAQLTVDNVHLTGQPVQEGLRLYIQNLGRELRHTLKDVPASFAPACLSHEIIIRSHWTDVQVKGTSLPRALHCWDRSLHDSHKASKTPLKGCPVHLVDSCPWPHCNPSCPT
The series is described as follows: Notum OPTS biochemical assay. Particulars: for IC50: mean. From the text:
The optimization of 6 to deliver this profile was directed at three principle areas of these hit structures: (1) aryl ring 7 (Table 1); (2) the C4 substituent on triazole 8 (Table 2); and (3) further fine-tuning of the triazole 9 (Table 3). […] This assay was used to establish SAR and to identify preferred leads for additional studies.
Methods have been described in detail elsewhere.[23]−[26] Representative concentration–response curves are provided in the Supporting Information.

The next series addresses T2, Notum (Homo sapiens, UniProt Q6P988).
T2 sequence (Q6P988 20-496): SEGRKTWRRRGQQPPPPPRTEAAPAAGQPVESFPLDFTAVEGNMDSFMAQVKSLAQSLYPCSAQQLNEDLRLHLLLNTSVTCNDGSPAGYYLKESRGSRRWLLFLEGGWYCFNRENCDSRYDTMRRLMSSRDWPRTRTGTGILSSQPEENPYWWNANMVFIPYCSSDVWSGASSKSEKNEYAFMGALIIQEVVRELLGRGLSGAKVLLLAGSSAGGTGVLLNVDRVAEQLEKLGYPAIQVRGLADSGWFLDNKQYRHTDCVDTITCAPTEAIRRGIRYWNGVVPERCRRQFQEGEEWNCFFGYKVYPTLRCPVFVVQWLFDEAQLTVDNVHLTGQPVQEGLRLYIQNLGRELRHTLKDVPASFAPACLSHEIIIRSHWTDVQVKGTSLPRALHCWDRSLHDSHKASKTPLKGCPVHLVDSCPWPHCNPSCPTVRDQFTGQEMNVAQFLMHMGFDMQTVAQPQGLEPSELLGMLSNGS
The series is described as follows: ABPP-TMT (FP-biotin) proteomic analysis in SW620 cells.

The next series is described as follows: in vitro. To be noted: pH 7.4. As for the experimental part: G. Plasma protein binding (PPB):
Method: rapid equilibrium dialysis.
Test System Mouse Plasma (K2EDTA)
Test compound concentration 10 µM (mouse) or 2 µM (rat)

[2] abbreviates: OPTS substrate, read-out: Notum IC50.
Where [3] appears, read: SW620 conditioned media, 1e-8 M.
The mark [4] stands for this setting: SW620 conditioned media, 3e-8 M.
The mark [5] stands for this setting: SW620 conditioned media, 1e-7 M.
Where [6] appears, read: SW620 conditioned media, 3e-7 M.
Setting [7] is: SW620 conditioned media, 1e-6 M.
Where [8] appears, read: SW620 conditioned media, 3e-6 M.
Setting [9] is: SW620 conditioned media, 1e-5 M.

“And” between values parts separate entries of the source, which are not always exact repeats. Equal entries are not always repeated. Structures can show the parent of a compound that is named as a salt. Where two headings read alike, the source gives them in different places.

As a reminder, the IC50 is the concentration at which inhibition is half-maximal. For orientation: fraction unbound means the share of the substance not bound to proteins or other matrix.

Consider `OCc1cn(-c2ccccc2)nn1` [7a, (1-Phenyl-1H-1,2,3-triazol-4-yl)methanol], for which the IC50 in series [1] (setting [2]) is 110 ± 30 µM.

Consider `OCc1cn(-c2cccc(F)c2)nn1` [7d, ((3-Fluorophenyl)-1H-1,2,3-triazol-4-yl)methanol], for which, in series [1] (setting [2]), the IC50 was 25 ± 3 µM.

Regarding `Cc1cccc(-n2cc(CO)nn2)c1` [7e, ((3-Methylphenyl)-1H-1,2,3-triazol-4-yl)methanol], in series [1] (@10 μM), the “% I” value is “b 40–50% I@10 μM”. In series [1] (setting [2]), the IC50 is ~10 µM and 10 µM.

On to `N#Cc1cccc(-n2cc(CO)nn2)c1` [7h, ((3-Cyanophenyl)-1H-1,2,3-triazol-4-yl)methanol], for which the IC50 in series [1] (setting [2]) came out at 83 ± 36 µM.

Regarding `CCOc1cccc(-n2cc(CO)nn2)c1` [7i, ((3-Ethoxyphenyl)-1H-1,2,3-triazol-4-yl)methanol], the IC50 in series [1] (setting [2]) is 230 ± 20 µM.

For the compound `OCc1cn(-c2ccc(F)cc2)nn1` [7j, ((4-Fluorophenyl)-1H-1,2,3-triazol-4-yl)methanol], the “% I” value in series [1] (@100 μM) is reported as “c 40–50% I@100 μM”. The IC50 in series [1] (setting [2]) was ~100 µM and 100 µM.

In the case of `Cc1ccc(-n2cc(CO)nn2)cc1` [7k, ((4-Methylphenyl)-1H-1,2,3-triazol-4-yl)methanol], in series [1] (setting [2]), the IC50 worked out at 13 ± 2 µM.

For `N#Cc1ccc(-n2cc(CO)nn2)cc1` [7m, ((4-Cyanophenyl)-1H-1,2,3-triazol-4-yl)methanol], in series [1] (setting [2]), the IC50 stood at 270 ± 310 µM.

Consider `CCOc1ccc(-n2cc(CO)nn2)cc1` [7n, ((4-Ethoxyphenyl)-1H-1,2,3-triazol-4-yl)methanol], for which the IC50 in series [1] (setting [2]) is 78 ± 45 µM.

Turning to `OCc1cn(-c2ccc(C(F)(F)F)c(C(F)(F)F)c2)nn1` [7v, ((3,4-Bis(trifluoromethyl)phenyl)-1H-1,2,3-triazol-4-yl)methanol], the IC50 in series [1] (setting [2]) is 2.2 ± 4.4 µM.

Take `CC(O)c1cn(-c2ccc(Cl)c(C(F)(F)F)c2Cl)nn1` (stereo not drawn) [8a, 1-(1-(2,4-Dichloro-3-(trifluoromethyl)phenyl)-1H-1,2,3-triazol-4-yl)ethan-1-ol]: the IC50 in series [1] (setting [2]) was 1.8 ± 1 µM.

Take `OCCc1cn(-c2ccc(Cl)c(C(F)(F)F)c2Cl)nn1` [8b, 2-(1-(2,4-Dichloro-3-(trifluoromethyl)phenyl)-1H-1,2,3-triazol-4-yl)ethan-1-ol]: the IC50 in series [1] (setting [2]) worked out at 5.7 ± 2.5 µM.

As for `OCCCc1cn(-c2ccc(Cl)c(C(F)(F)F)c2Cl)nn1` [8c, 3-(1-(2,4-Dichloro-3-(trifluoromethyl)phenyl)-1H-1,2,3-triazol-4-yl)propan-1-ol], the IC50 in series [1] (setting [2]) was determined as 1.8 ± 0.5 µM.

For `CC(O)Cc1cn(-c2ccc(Cl)c(C(F)(F)F)c2Cl)nn1` (stereo not drawn) [8d, 1-(1-(2,4-Dichloro-3-(trifluoromethyl)phenyl)-1H-1,2,3-triazol-4-yl)propan-2-ol], the IC50 in series [1] (Notum IC50, OPTS substrate) was greater than 1 µM; in series [1] (setting [2]) it was 1.7 ± 1.4 µM.

Regarding `OC1(Cc2cn(-c3ccc(Cl)c(C(F)(F)F)c3Cl)nn2)COC1` [8e, 3-((1-(2,4-Dichloro-3-(trifluoromethyl)phenyl)-1H-1,2,3-triazol-4-yl)methyl)oxetan-3-ol], the IC50 in series [1] (setting [2]) is 7.4 ± 1.1 µM.

With `O=C(O)c1cn(-c2ccc(Cl)c(C(F)(F)F)c2Cl)nn1` [8f, 1-(2,4-Dichloro-3-(trifluoromethyl)phenyl)-1H-1,2,3-triazole-4-carboxylic Acid], in series [1] (setting [2]), the IC50 was 0.031 ± 0.01 µM.

On to `NC(=O)c1cn(-c2ccc(Cl)c(C(F)(F)F)c2Cl)nn1` [8g, 1-(2,4-Dichloro-3-(trifluoromethyl)phenyl)-1H-1,2,3-triazole-4-carboxamide], for which, in series [1] (setting [2]), the IC50 turned out to be 1.2 ± 0.3 µM.

On to `CNC(=O)c1cn(-c2ccc(Cl)c(C(F)(F)F)c2Cl)nn1` [8h, 1-(2,4-Dichloro-3-(trifluoromethyl)phenyl)-N-methyl-1H-1,2,3-triazole-4-carboxamide], for which, in series [1] (setting [2]), the IC50 was determined as 2.3 ± 0.22 µM.

In the case of `NCc1cn(-c2ccc(Cl)c(C(F)(F)F)c2Cl)nn1` [8i, (1-(2,4-Dichloro-3-(trifluoromethyl)phenyl)-1H-1,2,3-triazol-4-yl)methanamine Hydrochloride], the IC50 in series [1] (setting [2]) worked out at 0.91 ± 0.12 µM. Also, the “NOTUM intensity normalised to DMSO” value worked out at 1.002 at Notum (setting [3]); 0.8137 at Notum (setting [4]); 0.7326 at Notum (setting [5]); 0.3649 on Notum (setting [6]); 0.1945 at Notum (setting [7]); 0.1349 on Notum (setting [8]). Also, the “NOTUM intensity normalised to DMSO” value on Notum (setting [9]) turned out to be 0.07262; on Notum (SW620 lysate, 1e-8 M), 1.016; on Notum (SW620 lysate, 3e-8 M), 0.7635; at Notum (SW620 lysate, 1e-7 M), 0.7415; on Notum (SW620 lysate, 3e-7 M) it was 0.5781; on Notum (SW620 lysate, 1e-6 M) it was 0.4746. Also, the “NOTUM intensity normalised to DMSO” value at Notum (SW620 lysate, 3e-6 M) is on record as 0.3389; at Notum (SW620 lysate, 1e-5 M), 0.2883.

As to `COCc1cn(-c2ccc(Cl)c(C(F)(F)F)c2Cl)nn1` [8j, 1-(2,4-Dichloro-3-(trifluoromethyl)phenyl)-4-(methoxymethyl)-1H-1,2,3-triazole], the IC50 in series [1] (setting [2]) was found to be 0.2 ± 0.05 µM.

As to `Cc1cn(-c2ccc(Cl)c(C(F)(F)F)c2Cl)nn1` [8k, 1-(2,4-Dichloro-3-(trifluoromethyl)phenyl)-4-methyl-1H-1,2,3-triazole], the “reduction in potency vs 7y” value in series [1] was 12 fold. The IC50 in series [1] (setting [2]) was 0.11 ± 0.04 µM.

Consider `FC(F)(F)c1c(Cl)ccc(-n2cnnc2)c1Cl` [9a, 4-(2,4-Dichloro-3-(trifluoromethyl)phenyl)-4H-1,2,4-triazole], for which the IC50 in series [1] (setting [2]) was determined as 1.3 ± 0.21 µM.

In the case of `FC(F)(F)c1c(Cl)ccc(-n2cnnn2)c1Cl` [9b, 1-(2,4-Dichloro-3-(trifluoromethyl)phenyl)-1H-tetrazole], in series [1] (setting [2]), the IC50 is 0.14 ± 0.02 µM.

In turn, `CC(=O)CC(c1ccccc1)c1c(O)c2ccccc2oc1=O` (stereo not drawn) [Warfarin, reference compound] registered a recovery at 4 h, 2 µM in the series “in vitro” (SD, rat) of 100%. The compound also returned a fraction unbound at 4 h, 2 µM in “in vitro” (SD, rat, plasma) of 0.0063. The recovery at 5 h, 10 µM in the series “in vitro” (mouse) stood at 103%. For the same compound, in the series “in vitro” (mouse, plasma, 5 h, 10 µM), the “Plasma protein binding (PPB), % bound” value turned out to be 95.71%. In “in vitro” (mouse, plasma), this compound yielded a fraction unbound at 5 h, 10 µM of 0.0429.

Turning to `O=C(O)CSc1ncnc2c(C3CC3)c(Cl)sc12` [compound 1, LP-922056, reference compound], the “NOTUM intensity normalised to DMSO” value amounted to 1.677 on Notum (setting [3]); 1.111 on Notum (setting [4]); 1.2088 at Notum (setting [5]); 0.5634 on Notum (setting [6]); 0.3108 on Notum (setting [7]); 0.1718 at Notum (setting [8]). In addition, the “NOTUM intensity normalised to DMSO” value came out at 0.112 on Notum (setting [9]); 0.811 at Notum (SW620 lysate, 1e-8 M); 0.6714 at Notum (SW620 lysate, 3e-8 M); 0.5739 on Notum (SW620 lysate, 1e-7 M); 0.495 at Notum (SW620 lysate, 3e-7 M); 0.3711 on Notum (SW620 lysate, 1e-6 M). The “NOTUM intensity normalised to DMSO” value was found to be 0.4727 at Notum (SW620 lysate, 3e-6 M) and 0.5374 at Notum (SW620 lysate, 1e-5 M).
